Measurements: publication PMC8566451, “Lead optimization of novel quinolone chalcone compounds by a structure–activity relationship (SAR) study to increase efficacy and metabolic stability” (Scientific Reports, 2021)
Like-named read-outs stand apart in the source and are kept apart here.

Experiments:
[1] = biological target: tubulin (colchicine binding site) (Sus scrofa, UniProt P02550+P02554); assay: Colchicine binding site competition assay (fluorescence of tubulin-colchicine complex, modified Dixon plot); conditions: for Ki / mode of inhibition of colchicine binding: modified Dixon plot; for mode of inhibition of colchicine binding: trendlines intersect above the X-axis
Procedure: (a) CTR-21 and CTR-32 inhibit microtubule polymerization in vitro. Spontaneous polymerization of 20 µM porcine tubulin was initiated with the addition of 1 mmol/L GTP at 37 °C and monitored every minute for 60 min in the presence of the indicated concentration of CTR-21, CTR-32, nocodazole, paclitaxel, or a DMSO vehicle control. To make the graph simpler, only 3 µM concentration is shown. The effects of higher doses are shown in Supplemental Fig. S9. […] Fluorescent intensity was compared to the fluorescence of the tubulin-colchicine complex in absence of CTR-21 or CTR-32 (F0). […] A modified Dixon plot was used to determine the inhibitory concentration of CTR-21 and CTR-32 (Ki).
When we added either CTR-21 or CTR-32 to the colchicine-tubulin complex, we observed a reduction in fluorescence in a dose -dependent manner (Fig. 2b).
Microtubule assembly was assessed using a Tubulin Polymerization assay kit (BK011P; Cytoskeleton Inc., Denver, CO). 20 µM of purified porcine tubulin proteins (> 99% purity) were suspended in G-PEM buffer containing 80 mM PIPES, 2 mM MgCl2, 0.5 mM EGTA, 1 mM GTP (pH 6.9) and 20% glycerol. Polymerization was started by incubating at 37 °C and followed by absorbance readings every 1 min at 340 nm for 1 h using a Synergy H4 plate reader.

[2] = tested on: peripheral blood mononuclear cells (PBMC); assay: PBMC culture and MTS assay; format: cell-based, human; conditions: for GI50: Homo sapiens, 48 h; for Selectivity Index (PBMC): PBMCs versus average GI50 of cancer cells
Procedure: Peripheral blood mononuclear cells from healthy donors were isolated by density gradient centrifugation using Ficoll solution as described below. Blood samples used were supplied by the Canadian Blood Services under the Institutional Research Ethics Board Project # 18–099, and no human participants or volunteers were involved directly in the current study.
Whole blood was gently layered over an equal volume of Ficoll and centrifuged at 800 × g for 20 min with no brake. The Buffy coat was carefully collected by pipetting in 50 mL tubes and topped off with PBS. The cell isolates were subsequently mixed by inversion and centrifuged at 300 × g for 12 min. The supernatant was then carefully aspirated without disturbing the cell pellet, and the PBMCs were resuspended in ammonium-chloride-potassium (ACK) lysis buffer. The tubes were left to stand for 15 min to allow for red blood cell lysis. PBS was again added to the cells and centrifuged at 300 × g for 12 min and pelleted PBMCs were resuspended in RPMI + 10% heat inactivated FBS. Following counting, cells were centrifuged again and cryopreserved with a freezing medium composed of 40% FBS, 10% DMSO and 50% culture medium. Cryovials were placed in a − 80 °C for 24 h prior to transfer to liquid nitrogen for long-term storage.
PBMC cryovials were transferred from liquid nitrogen and placed in a 37 °C water bath until almost completely thawed. 1 mL of pre-warmed medium was added drop-wise and the entire contents of the cryovial was transferred to a 15-mL tube. Pre-warmed medium was then added to bring the volume up to 10 mL. The PBMCs were centrifuged at 300 × g for 10 min, and the cell pellet was gently resuspended with 5 mL of warm medium. The tubes were subsequently placed in a 37 °C incubator in a 5° angled rack for 4 h. An additional 5 mL warm medium containing of 30 units/mL benzonase nuclease was then injected into the cell solution and left to stand at room temperature for 5 min before centrifugation for 10 min at 300 × g. The pelleted cells were resuspended in the medium with 100 units/mL of IL-2 (Cedarlane Laboratories, Burlington, ON, Canada) and a small aliquot was used for cell counting and viability staining. The cells were plated in 96-well plates at a density of 80,000–120,000 cellules/well/100 µL.
Following a 48-h incubation period, eight different concentrations of compound solutions using two to four-fold serial dilutions were added to the cells (100 µl). Cells were incubated for an additional 48 h and cytotoxicity was established using the CellTiter 96 cytotoxicity assay (Promega). 40 μl of the tetrazolium dye was added to each well of the plate and then incubated for 2 h. OD was then read directly at 490 nm using the automated Biotek Synergy H4 plate reader. The GI50 was calculated similarly to the SRB.

[3] = Toxicity in mice (body weight, AST/ALT); format: in vivo, mouse; conditions: for liver toxicity (AST and ALT): C57BL/6 mice, up to maximum doses 10 mg (CTR-21) and 50 mg (CTR-32); for toxicity in mice: mice treated at 10 mg/kg
Procedure: All animal experiments, including animal handling, care, treatments and endpoint determination were reviewed and approved by the Animal Care Committee (ACC) at Laurentian University (Sudbury, Ontario, Canada). We hereby confirm that all animal-based experiments were performed in compliance with relevant guidelines and regulations, including the ARRIVE guidelines (http://www.nc3rs.org.uk/page.asp?id=1357). Weight measurement and AST/ALT experiments were carried out as before.
Neither CTR-21 nor CTR-32 treatment notabl y affect ed the bod y weight of mice treated with CTR-21 or CTR-32. Mice ( C57B L/6) were inject ed (i.p.) ev er y three da ys with the indicated doses of CTR -21 or CTR-32, along with vehicle control. […]
doses used in this experiment (i.e., 10 mg and 50 mg for CTR-21 and CTR-32, respectivel y).
There is no si gnificant changes of AST and ALT between different groups , including vehicl e

[4] = PBMC #1, MTS, read-out: GI50 PBMC #1
[5] = PBMC #2, MTS, read-out: GI50 PBMC #2

In the case of CCOc1ccccc1C(=O)/C=C/c1cc2ccccc2[nH]c1=O [CTR-32, (E)-3-(3-(2-ethoxyphenyl)-3-oxoprop-1-enyl)quinolin-2(1H)-one], the Ki [1] is reported as 7200 nM, the “mode of inhibition of colchicine binding” value [1] is reported as “competitive inhibitors” and the GI50 [2, 4] is reported as 1880 ± 147 nM. The GI50 [2, 5] was 787 ± 396 nM, the “Selectivity Index (PBMC)” value [2] was 67 and the “liver toxicity (AST and ALT)” value [3] was “do not show notable liver”. For the same compound, the ALT ([3]; female C57BL/6 mice, 30 mg/kg) was 103.54±61.53 U/L, the AST ([3]; female C57BL/6 mice, 30 mg/kg) was 253.74±117.87 U/L and the AST/ALT ([3]; female C57BL/6 mice, 30 mg/kg) was 2.45. It also gave an ALT ([3]; female C57BL/6 mice, 50 mg/kg) of 87.81±25.42 U/L, an AST ([3]; female C57BL/6 mice, 50 mg/kg) of 268.16±136.88 U/L and an AST/ALT ([3]; female C57BL/6 mice, 50 mg/kg) of 3.05. For the same compound, the ALT ([3]; male C57BL/6 mice, 30 mg/kg) was 110.30±44.56 U/L, the AST ([3]; male C57BL/6 mice, 30 mg/kg) was 288.49±184.97 U/L and the AST/ALT ([3]; male C57BL/6 mice, 30 mg/kg) was 2.62. It also gave an ALT ([3]; male C57BL/6 mice, 50 mg/kg) of 96.57±45.23 U/L, an AST ([3]; male C57BL/6 mice, 50 mg/kg) of 217.49±39.91 U/L and an AST/ALT ([3]; male C57BL/6 mice, 50 mg/kg) of 2.25. For the same compound, the toxicity in mice [3] was “no ill-effects observed”.
For COc1ccccc1C(=O)/C=C/c1cc2cccc(OC)c2[nH]c1=O [CTR-21, (E)-8-methoxy-3-(3-(2-methoxyphenyl)-3-oxoprop-1-enyl) quinolin-2(1H)-one], the “strength of inhibition relative to CTR-32 (Ki ratio)” value ([1]; CTR-21 versus CTR-32) was “about 4.9 times”, the Ki [1] was 1470 nM and the “mode of inhibition of colchicine binding” value [1] was “competitive inhibitors”. The GI50 [2, 4] was 1860 ± 336 nM, the GI50 [2, 5] was 1630 ± 317 nM and the “Selectivity Index (PBMC)” value [2] was 106. For the same compound, the “liver toxicity (AST and ALT)” value [3] was “do not show notable liver”, the ALT ([3]; female C57BL/6 mice, 1 mg/kg) was 118.03±25.82 U/L and the AST ([3]; female C57BL/6 mice, 1 mg/kg) was 249.47±77.12 U/L. It also gave an AST/ALT ([3]; female C57BL/6 mice, 1 mg/kg) of 2.12, an ALT ([3]; female C57BL/6 mice, 5 mg/kg) of 142.17±45.44 U/L and an AST ([3]; female C57BL/6 mice, 5 mg/kg) of 265.03±97.76 U/L. For the same compound, the AST/ALT ([3]; female C57BL/6 mice, 5 mg/kg) was 1.86, the ALT ([3]; female C57BL/6 mice, 10 mg/kg) was 142.98±45.61 U/L and the AST ([3]; female C57BL/6 mice, 10 mg/kg) was 319.215±101.93 U/L. For the same compound, the AST/ALT ([3]; female C57BL/6 mice, 10 mg/kg) was 2.23, the ALT ([3]; male C57BL/6 mice, 1 mg/kg) was 128.49±60.78 U/L and the AST ([3]; male C57BL/6 mice, 1 mg/kg) was 264.42±91.94 U/L. For the same compound, the AST/ALT ([3]; male C57BL/6 mice, 1 mg/kg) was 2.06, the ALT ([3]; male C57BL/6 mice, 5 mg/kg) was 142.71±58.30 U/L and the AST ([3]; male C57BL/6 mice, 5 mg/kg) was 228.82±42.23 U/L. For the same compound, the AST/ALT ([3]; male C57BL/6 mice, 5 mg/kg) was 1.60, the ALT ([3]; male C57BL/6 mice, 10 mg/kg) was 123.93±49.96 U/L and the AST ([3]; male C57BL/6 mice, 10 mg/kg) was 242.62±102.65 U/L. For the same compound, the AST/ALT ([3]; male C57BL/6 mice, 10 mg/kg) was 1.96 and the toxicity in mice [3] was “no ill-effects observed”.
